As a reminder, the IC50 is the point on the concentration scale where inhibition reaches its midpoint. Read a low IC50 as inhibition by little substance. What is called Kd is a measure of binding affinity in units of concentration. A lower Kd goes with a tighter complex.

Molecules are shown by their SMILES.

Assay [1] concerns human lung cancer strain NCI-H441. In kind it is cell-based. Put shortly: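 Signal came from […] measured per well once the reagent was added. Beforehand, cells were cultured at 37°C and 5% carbon dioxide on a compound series serially diluted in dimethyl sulfoxide.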
Assay [2] concerns the target GDP-bound NRAS wild-type protein (Homo sapiens, UniProt P01111). The assay is described as follows: Binding to NRAS by surface plasmon resonance (SPR), KD and KD ratio to KRAS. The note with it: ratio of the KD value with respect to GDP-bound NRAS wild-type protein to the KD value with respect to KRAS. In outline:
(§1)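 Recombinant RAS proteins bearing a biotinylated Avi tag and loaded with GDP served as the captured ligand, recaptured fresh every cycle. Binding responses were referenced to an uncoated surface and a buffer-only blank cycle. Dissociation constants were obtained by 1:1 model fitting at 30°C.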
(In SPR one partner is held on a chip, and binding of the other changes the refractive index at the surface.)

For another assay, the target named is HRAS wild-type protein (Homo sapiens, UniProt P01112). The assay is described as follows: Binding to HRAS by surface plasmon resonance (SPR), KD and KD ratio to KRAS. As to conditions: ratio of the KD value with respect to HRAS wild-type protein to the KD value with respect to KRAS. Put shortly: as §1
Chain of HRAS wild-type protein (P01112 whole entry): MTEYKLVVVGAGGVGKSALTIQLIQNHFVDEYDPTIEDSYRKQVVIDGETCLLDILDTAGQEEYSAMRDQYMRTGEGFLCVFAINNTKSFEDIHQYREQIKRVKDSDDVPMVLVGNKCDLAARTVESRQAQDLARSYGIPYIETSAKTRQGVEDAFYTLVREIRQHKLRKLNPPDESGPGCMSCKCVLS
For assay [3], the target named is GDP-bound KRAS wild-type protein (Homo sapiens, UniProt P01116). The assay is described as follows: Binding to KRAS by surface plasmon resonance (SPR), dissociation constant KD. As to conditions: Single Cycle Kinetics, 1:1 binding model. In outline:
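Captured GDP-RAS (~100–300 RU) was exposed to increasing compound concentrations, 75 s per step, in running buffer with 10 µM GDP, 10 mM MgCl2 and 4% DMSO at pH 7.4.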

Chain of GDP-bound KRAS wild-type protein (P01116 1-188 isoform P01116-2): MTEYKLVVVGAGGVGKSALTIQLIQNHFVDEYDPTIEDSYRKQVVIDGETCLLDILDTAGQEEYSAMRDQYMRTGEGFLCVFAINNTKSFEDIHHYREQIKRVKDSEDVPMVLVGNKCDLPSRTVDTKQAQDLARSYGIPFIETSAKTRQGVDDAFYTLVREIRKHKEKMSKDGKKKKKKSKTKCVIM
Chain of GDP-bound NRAS wild-type protein (P01111 whole entry): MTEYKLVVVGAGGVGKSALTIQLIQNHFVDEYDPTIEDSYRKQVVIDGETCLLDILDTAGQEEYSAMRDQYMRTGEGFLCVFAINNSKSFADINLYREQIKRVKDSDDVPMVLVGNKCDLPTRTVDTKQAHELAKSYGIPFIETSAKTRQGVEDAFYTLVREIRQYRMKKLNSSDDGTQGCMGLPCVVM

Consider `CCO[C@@H]1C[C@H]2C(=O)NC3(CCC3)C(=O)N(C)[C@@H](C3CCCC3)C(=O)N(C)[C@H](C(=O)N(C)C)CC(=O)N(C)[C@@H](Cc3ccccc3)C(=O)N[C@@H]([C@@H](C)CC)C(=O)N(C)CC(=O)N(C)[C@H]3CCCCCN(C3=O)[C@@H](Cc3ccc(C(F)(F)F)cc3)C(=O)N(C)CC(=O)N[C@@H](CCc3cc(F)c(C(F)(F)F)c(F)c3)C(=O)N2C1` [PP0672], for which the half-maximal inhibitory concentration (IC50) in assay [1] is 19.7 nM. Moreover, in assay [2], the “NRAS /KRAS” value is “B (a compound having 3 or more and less than 10 is denoted as B)”. Besides, the “HRAS /KRAS” value on HRAS wild-type protein is “B (a compound having 3 or more and less than 10 is denoted as B)”. In addition, in assay [3], binding was characterised by a dissociation constant (Kd) of 0.3 nM.

Regarding `CCO[C@@H]1C[C@H]2C(=O)NC3(CCC3)C(=O)N(C)[C@@H](C3CCCC3)C(=O)N(C)[C@H](C(=O)N(C)C)CC(=O)N(C)[C@@H](CCOC)C(=O)N[C@@H]([C@@H](C)CC)C(=O)N(C)CC(=O)N(C)[C@H]3CCCCCN(C3=O)[C@@H](Cc3ccc(C(F)(F)F)cc3)C(=O)N(C)CC(=O)N[C@@H](CCc3cc(F)c(C(F)(F)F)c(F)c3)C(=O)N2C1` [PP0675], in assay [1], the IC50 was 25.5 nM. Moreover, the “NRAS /KRAS” value in assay [2] is “B (a compound having 3 or more and less than 10 is denoted as B)”. Further, the “HRAS /KRAS” value at HRAS wild-type protein was “B (a compound having 3 or more and less than 10 is denoted as B)”. This molecule returned a Kd in assay [3] of 0.22 nM.

Turning to `CCO[C@@H]1C[C@H]2C(=O)NC3(CCC3)C(=O)N(C)[C@@H](C3CCCC3)C(=O)N(C)[C@H](C(=O)N3CCOCC3)CC(=O)N(C)[C@@H](CC3CCC3)C(=O)N[C@@H]([C@@H](C)CC)C(=O)N(C)CC(=O)N(C)[C@H]3CCCCCN(C3=O)[C@@H](Cc3ccc(C(F)(F)F)cc3)C(=O)N(C)CC(=O)N[C@@H](CCc3cc(F)c(C(F)(F)F)c(F)c3)C(=O)N2C1` [PP0683], in assay [1], the IC50 came out at 44.7 nM. The “NRAS /KRAS” value in assay [2] was “B (a compound having 3 or more and less than 10 is denoted as B)”. For the same molecule, the “HRAS /KRAS” value at HRAS wild-type protein was “B (a compound having 3 or more and less than 10 is denoted as B)”. The dissociation constant Kd in assay [3] amounted to 0.61 nM.

On to `CCO[C@@H]1C[C@H]2C(=O)NC3(CCC3)C(=O)N(C)[C@@H](C3CCCC3)C(=O)N(C)[C@H](C(=O)N3CCOCC3)CC(=O)N(C)[C@@H](CC(C)(C)C)C(=O)N[C@@H]([C@@H](C)CC)C(=O)N(C)CC(=O)N(C)[C@H]3CCCCCN(C3=O)[C@@H](Cc3ccc(C(F)(F)F)cc3)C(=O)N(C)CC(=O)N[C@@H](CCc3cc(F)c(C(F)(F)F)c(F)c3)C(=O)N2C1` [PP0684], for which it took 45 nM to reach half-maximal inhibition in assay [1] (IC50). The “NRAS /KRAS” value in assay [2] is “B (a compound having 3 or more and less than 10 is denoted as B)”. Also, the “HRAS /KRAS” value on HRAS wild-type protein was “B (a compound having 3 or more and less than 10 is denoted as B)”. Further, the equilibrium dissociation constant (Kd) in assay [3] was 1.1 nM.

On to `CCO[C@@H]1C[C@H]2C(=O)NC3(CCC3)C(=O)N(C)[C@@H](C3CCCC3)C(=O)N(C)[C@H](C(=O)N3CCOCC3)CC(=O)N(C)[C@@H](CC3CCCC3)C(=O)N[C@@H]([C@@H](C)CC)C(=O)N(C)CC(=O)N(C)[C@H]3CCCCCN(C3=O)[C@@H](Cc3ccc(C(F)(F)F)cc3)C(=O)N(C)CC(=O)N[C@@H](CCc3cc(F)c(C(F)(F)F)c(F)c3)C(=O)N2C1` [PP0685], for which the concentration for half-maximal inhibition (IC50) in assay [1] was determined as 52.3 nM. In assay [2], the “NRAS /KRAS” value was “B (a compound having 3 or more and less than 10 is denoted as B)”. The “HRAS /KRAS” value on HRAS wild-type protein was “B (a compound having 3 or more and less than 10 is denoted as B)”. This molecule also displayed a Kd in assay [3] of 0.8 nM.

For the molecule `CCO[C@@H]1C[C@H]2C(=O)NC3(CCC3)C(=O)N(C)[C@@H](C3CCCC3)C(=O)N(C)[C@H](C(=O)N3CCOCC3)CC(=O)N(C)[C@@H](CC3CCCCC3)C(=O)N[C@@H]([C@@H](C)CC)C(=O)N(C)CC(=O)N(C)[C@H]3CCCCCN(C3=O)[C@@H](Cc3ccc(C(F)(F)F)cc3)C(=O)N(C)CC(=O)N[C@@H](CCc3cc(F)c(C(F)(F)F)c(F)c3)C(=O)N2C1` [PP0686], the IC50 in assay [1] turned out to be 65.7 nM. In assay [2], the “NRAS /KRAS” value is “B (a compound having 3 or more and less than 10 is denoted as B)”. The “HRAS /KRAS” value at HRAS wild-type protein was “B (a compound having 3 or more and less than 10 is denoted as B)”. Further, the affinity in assay [3], expressed as Kd, was 1 nM.

Regarding `CCO[C@@H]1C[C@H]2C(=O)NC3(CCC3)C(=O)N(C)[C@@H](C3CCCC3)C(=O)N(C)[C@H](C(=O)N3CCOCC3)CC(=O)N(C)[C@@H](Cc3ccccc3)C(=O)N[C@@H]([C@@H](C)CC)C(=O)N(C)CC(=O)N(C)[C@H]3CCCCCN(C3=O)[C@@H](Cc3ccc(C(F)(F)F)cc3)C(=O)N(C)CC(=O)N[C@@H](CCc3cc(F)c(C(F)(F)F)c(F)c3)C(=O)N2C1` [PP0687], in assay [1], the concentration for half-maximal inhibition (IC50) came out at 44.1 nM. Besides, the “NRAS /KRAS” value in assay [2] is “B (a compound having 3 or more and less than 10 is denoted as B)”. Besides, the “HRAS /KRAS” value at HRAS wild-type protein was “B (a compound having 3 or more and less than 10 is denoted as B)”. The molecule also had a Kd in assay [3] of 0.64 nM.

Regarding `CCO[C@@H]1C[C@H]2C(=O)NC3(CCC3)C(=O)N(C)[C@@H](C3CCCC3)C(=O)N(C)[C@H](C(=O)N(C)C)CC(=O)N(C)[C@@H](CC3CCCC3)C(=O)N[C@@H]([C@@H](C)CC)C(=O)N(C)CC(=O)N(C)[C@H]3CCCCN(C3=O)[C@@H](Cc3ccc(C(F)(F)F)cc3)C(=O)N(C)CC(=O)N[C@@H](CCc3cc(F)c(C(F)(F)F)c(F)c3)C(=O)N2C1` [PP0700], half-maximal inhibition in assay [1] (IC50) was put at 2.9 nM. In assay [2], the “NRAS /KRAS” value is “C (A compound having a KD ratio of 0.1 or more and less than 3 is denoted as C)”. Moreover, the “HRAS /KRAS” value at HRAS wild-type protein was “B (a compound having 3 or more and less than 10 is denoted as B)”. This molecule also yielded a Kd in assay [3] of 0.013 nM.

The molecule `CCO[C@@H]1C[C@H]2C(=O)NC3(CCC3)C(=O)N(C)[C@@H](C3CCCC3)C(=O)N(C)[C@H](C(=O)N3CCOCC3)CC(=O)N(C)[C@@H](Cc3cccnc3)C(=O)N[C@@H]([C@@H](C)CC)C(=O)N(C)CC(=O)N(C)[C@H]3CCCCN(C3=O)[C@@H](Cc3ccc(C(F)(F)F)cc3)C(=O)N(C)CC(=O)N[C@@H](CCc3cc(F)c(C(F)(F)F)c(F)c3)C(=O)N2C1` [PP0718] yielded a half-inhibitory concentration (IC50) in assay [1] of 42.3 nM. Further, the “NRAS /KRAS” value in assay [2] is “C (A compound having a KD ratio of 0.1 or more and less than 3 is denoted as C)”. For the same molecule, the “HRAS /KRAS” value at HRAS wild-type protein was “B (a compound having 3 or more and less than 10 is denoted as B)”. The affinity in assay [3], expressed as Kd, was 0.029 nM.

Consider `CCO[C@@H]1C[C@H]2C(=O)NC3(CCC3)C(=O)N(C)[C@@H](C3CCCC3)C(=O)N(C)[C@H](C(=O)N(C)C)CC(=O)N(C)[C@@H](C)C(=O)N[C@@H]([C@H](C)CC)C(=O)N(C)CC(=O)N(C)[C@H]3CCCCCN(C3=O)[C@@H](Cc3ccc(C(F)(F)F)cc3)C(=O)N(C)CC(=O)N[C@@H](CCc3cc(F)c(C(F)(F)F)c(F)c3)C(=O)N2C1` [PP0729], for which the IC50 in assay [1] was 216 nM. Besides, the “NRAS /KRAS” value in assay [2] was “B (a compound having 3 or more and less than 10 is denoted as B)”. For the same molecule, at HRAS wild-type protein, the “HRAS /KRAS” value is “B (a compound having 3 or more and less than 10 is denoted as B)”. In assay [3], the affinity, expressed as Kd, was 2.7 nM.

These data come from patent EP4603105A1, “PHARMACEUTICAL COMPOSITION CONTAINING CYCLIC COMPOUND HAVING SELECTIVE KRAS INHIBITORY EFFECT AGAINST HRAS AND NRAS” (CHUGAI SEIYAKU KABUSHIKI KAISHA, priority 2022, dated 2024).
